Measurements reported in patent publication US6870069B2, “Phenyloxyaniline derivatives” (National Institute of Radiological Sciences, priority 2003, dated 2005).

Columns and labels:
[1] = molecular target: T1, peripheral benzodiazepine receptor (PBR) (Rattus norvegicus, UniProt P16257); assay: In vitro affinity to PBR: displacement of [11C]DAA1106 binding on rat brain sections (autoradiography, olfactory bulb ROI); details: for IC50: [11C]DAA1106 1 nM, rat brain sections, olfactory bulb, 37° C. 30 minutes, probit method
T1 construct: Sagittal sections of the rat were prepared using Crystat microtome; from tissue; host or cells: rat brain sagittal sections (ROI: olfactory bulb)
Experimental: Under anesthetization with ether, male Sprague-Dawley rats (250 to 300 g; n=4) were slaughtered and the brain was quickly cut and frozen in dry ice. Sagittal sections of the rat were prepared using Crystat microtome (MICROM HM560, Carl Zeiss GmbH, Germany). The sections were previously incubated in a 50 mM Tris buffer (pH=7.4) for 30 minutes. After that, the sections were taken out and again incubated at 37° C. for 30 minutes in 50 mM Tris buffer (pH=7.4) containing each of the following reagents at the same time.
After completion of the incubation, the section was taken out and dipped in an ice-cooled Tris buffer for 2 minutes twice. The section was dipped in ice-cooled distilled water and then dried. […] A region of interest (ROI) was defined as an olfactory bulb and radioactivity was expressed in terms of a photo-stimulated-luminescence (PSL)/mm^2 region. Specific binding of [^11C]DAA1106 in the presence of DAA1106, PK11156, FMDAA1106 and FEDAA1106 of various concentrations was determined and IC50 (nM) of those reagents was calculated by a probit method.

[2] = molecular target: T2, central benzodiazepine receptor (CBR); assay: Affinity to CBR using [11C]flumazenil, a selective ligand for CBR; assay type: binding, rat; details: [11C]flumazenil
T2 construct: IC50 CBR; other: [11C]flumazenil
Experimental: (§1) On the other hand, affinity of FMDAA1106 and FEDAA1106 to central benzodiazepine receptor (CBR) was determined (Table 1) using [^11C]flumazenil which is a selective ligand for CBR. As a result, affinity of FEDAA1106 and FMDAA1106 to CBR was not less than 10 μM and was about 10,000-fold weaker than the affinity of PBR. […] Incidentally, partition coefficients (log P) of the two ligands were measured by an octanol/water (pH 7.4) partition method.

[3] = Partition coefficient (log P) by octanol/water (pH 7.4) partition method; assay type: physicochemical
Experimental: as §1

[4] = system: central benzodiazepine receptor (CBR); assay: Affinity to CBR using [11C]flumazenil, a selective ligand for CBR; assay type: binding, rat; details: CBR versus PBR selectivity
Experimental: as §1

| IC50 [1] [nM] | IC50 [2] [nM] | logP [3] | affinity to PBR as compared with DAA1106 ([1]; relative to DAA1106) | affinity to PBR as compared with PK11195 ([1]; relative to PK11195) | affinity to CBR weaker than the affinity of PBR [4] | Compound |
| --- | --- | --- | --- | --- | --- | --- |
| 1.62 | > 10000 | 3.65 |  |  |  | COc1ccc(OC)c(CN(C(C)=O)c2cc(F)ccc2Oc2ccccc2)c1 [DAA1106, N-(2,5-dimethoxybenzyl)-N-(5-fluoro-2-phenoxyphenyl)acetamide, reference compound] |
|  | > 10000 |  |  |  |  | CCC(C)N(C)C(=O)c1cc2ccccc2c(-c2ccccc2Cl)n1 (stereo not shown) [PK11195, N-methyl-N-(1-methylpropyl)-1-(2-chlorophenyl)-isoquinoline-3-carboxamide, reference compound] |
| 0.77 | > 10000 | 3.81 | two-fold higher affinity | about ten-fold stronger affinity | about 10,000 fold | COc1ccc(OCCF)c(CN(C(C)=O)c2cc(F)ccc2Oc2ccccc2)c1 [FEDAA1106, N-[2-(2-fluoro)ethyl-5-methoxybenzyl]-N-(5-fluoro-2-phenoxyphenyl)acetamide] |
